Laboratory results as given in patent publication US10941145B2, “Toll-like receptor 7 (TLR7) agonists having a benzotriazole moiety, conjugates thereof, and methods and uses therefor” (BRISTOL-MYERS SQUIBB COMPANY, priority 2017, dated 2021).

Experiments:
interleukin 6 (IL-6) = assay: Interleukin 6 (IL-6) induction in human whole blood; format: cell-based; conditions: 37° C., 20 h, AlphaLISA
Description: This example describes a method for assaying interleukin 6 induction by compounds disclosed in this specification.
Compounds diluted in DMSO were transferred to individual wells of a Matrix Technologies clear, V-bottom 384-well plate using ECHO acoustic liquid handling technology (25 nL per well). Human whole-blood samples (25 uL) were added to each well using a CyBio FeliX liquid handling instrument. The plate was shaken on a plate shaker for three min before the reaction mixtures at 37° C. for 20 h. Basel RPMI 1640 medium (supplemented with L-glutamine) was then added to each well (25 uL per well) prior to liberating plasma from each sample by centrifugation (450×g, 5 min, ambient temperature). Treated plasma samples (3 uL) were subsequently transferred to individual wells of a white, shallow, 384-well ProxiPlate (Perkin Elmer) using the FeliX liquid handling instrument and their interleukin 6 levels were measured using AlphaLISA technology as described by the manufacturer, PerkinElmer. Data analyses software was used to determine compound EC50 values where the baseline was established using average DMSO values and 100% induction established using reference compound values at the highest concentration tested. EC50's can be determined with software such as Graphpad Prism™.

human TLR7 = molecular target: T1, human TLR7 (Homo sapiens, UniProt Q9NYK1); assay: HEK-Blue TLR7 reporter assay (TLR7 agonism); format: cell-based; conditions: HEK-Blue TLR7 cells, human TLR7-SEAP reporter, 18 h treatment
T1 construct: host or cells: HEK-Blue TLR7 cells (engineered human embryonic kidney cells)
T1 sequence (Q9NYK1 27-1049): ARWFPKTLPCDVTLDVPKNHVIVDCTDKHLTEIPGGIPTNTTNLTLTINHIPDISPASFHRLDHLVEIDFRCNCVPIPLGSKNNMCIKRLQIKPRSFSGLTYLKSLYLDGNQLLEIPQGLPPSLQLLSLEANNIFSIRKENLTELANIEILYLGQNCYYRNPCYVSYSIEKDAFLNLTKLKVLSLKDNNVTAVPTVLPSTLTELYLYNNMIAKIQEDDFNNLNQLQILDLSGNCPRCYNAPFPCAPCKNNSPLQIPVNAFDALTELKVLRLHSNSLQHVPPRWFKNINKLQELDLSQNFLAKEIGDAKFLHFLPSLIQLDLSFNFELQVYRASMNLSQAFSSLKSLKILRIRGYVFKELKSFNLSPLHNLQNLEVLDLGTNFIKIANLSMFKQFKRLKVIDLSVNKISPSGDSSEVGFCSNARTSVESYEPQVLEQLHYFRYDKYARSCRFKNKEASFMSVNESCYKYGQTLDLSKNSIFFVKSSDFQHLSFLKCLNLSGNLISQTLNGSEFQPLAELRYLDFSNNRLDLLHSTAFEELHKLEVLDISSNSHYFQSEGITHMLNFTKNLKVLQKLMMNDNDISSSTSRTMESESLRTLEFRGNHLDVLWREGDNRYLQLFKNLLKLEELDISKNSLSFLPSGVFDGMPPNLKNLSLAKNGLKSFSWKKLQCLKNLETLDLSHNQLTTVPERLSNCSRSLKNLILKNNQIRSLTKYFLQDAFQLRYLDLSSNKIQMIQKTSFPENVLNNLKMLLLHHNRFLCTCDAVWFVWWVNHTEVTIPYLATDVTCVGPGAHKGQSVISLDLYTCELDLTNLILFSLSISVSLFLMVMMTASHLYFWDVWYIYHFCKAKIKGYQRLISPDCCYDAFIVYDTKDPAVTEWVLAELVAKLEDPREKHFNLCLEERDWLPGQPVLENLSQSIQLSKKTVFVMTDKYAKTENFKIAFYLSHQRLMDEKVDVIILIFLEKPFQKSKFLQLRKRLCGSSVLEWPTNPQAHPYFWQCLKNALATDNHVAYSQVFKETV
Description: This example describes a method for assaying TLR7 agonist activity of the compounds disclosed in this specification.
HEK-Blue™ TLR7 cells were added to each well of a 384-well tissue-culture plate (15,000 cells per well) and incubated 16-18 h at 37° C., 5% CO2. Compounds (100 nl) were dispensed into wells containing the HEK-Blue™ TLR cells and the treated cells were incubated at 37° C., 5% CO2. After 18 h treatment ten microliters of freshly-prepared Quanti-Blue™ reagent (Invivogen) was added to each well, incubated for 30 min (37° C., 5% CO2) and SEAP levels measured using an Envision plate reader (OD=620 nm).

IFN-α = conditions: fold less potent than the corresponding purine-8-one compound; cited from earlier work

SMILES	EC50 (interleukin 6 (IL-6)) [nM]	EC50 (human TLR7) [nM]	potency less than that of the corresponding purine-8-one compound, as measured by IFN-α induction (IFN-α) [×]
CCCCNCCn1nnc2cc(Cn3c(O)nc4c(N)nc(OCCCC)nc43)ccc21 [Ia-03]	16.8	2.3	
CCCCOc1nc(N)c2nc(O)n(Cc3ccc4c(c3)nnn4CCNC3COC3)c2n1 [Ia-06]	56.2	11	
CCCCOc1nc(N)c2nc(O)n(Cc3ccc4c(c3)nnn4CCNCc3ccccc3)c2n1 [Ia-09]	44	24	
CCCCOc1nc(N)c2nc(O)n(Cc3ccc4c(c3)nnn4CCNC3CCC3)c2n1 [Ia-05]	22.5	0.9	
CCCCOc1nc(N)c2nc(O)n(Cc3ccc4c(c3)nnn4CCNC3CC3)c2n1 [Ia-04]	15.3	4	
CCCCOc1nc(N)c2nc(O)n(Cc3ccc4c(c3)nnn4CCNCc3ccncc3)c2n1 [Ia-10]	18.2	7.2	
CCCCOc1nc(N)c2c(n1)N(Cc1cccc(CN3CCCC3)c1)CC(=O)N2 [Vesatolimod, vesatolimod]			100
CCCCOc1nc(N)c2nc(O)n(Cc3ccc4c(c3)nnn4CCNC3CN(C(=O)OC(C)(C)C)C3)c2n1 [Ia-08]		113	
CCCCOc1nc(N)c2nc(O)n(Cc3ccc4c(c3)nnn4CCO)c2n1 [Ia-01]	37	5.4	
CCCCOc1nc(N)c2nc(O)n(Cc3ccc4c(c3)nnn4CCNCC3COC3)c2n1 [Ia-07]	19.7	2.4	
CCCCOc1nc(N)c2nc(O)n(Cc3ccc4c(c3)nnn4CCCl)c2n1 [Ia-02]	53	26	
